Data on 1 molecule can be found in ChEMBL document CHEMBL1629647, “Preclinical evaluation of GS-9160, a novel inhibitor of human immunodeficiency virus type 1 integrase” (Antimicrob Agents Chemother, 2009).

A short description of data set [1]: Cytotoxicity against human SupT1 cells infected with HIV1 3B. The format is cell-based, SUP-T1. The following applies: SupT1 cells infected with HIV-1 3B.
The subject of data set [2] is Human immunodeficiency virus 1. The data set can be described thus: Antiviral activity against 0.02 MOI HIV1 3B infected in human MT-2 cells by two fold dilution method in presence of 100% human serum. The format is functional, organism-based. The following applies: Human immunodeficiency virus 1, 3B, MT2.
Data set [3] relates to Human immunodeficiency virus 1. The data set can be described thus: Antiviral activity against HIV1 infected in SupT1 cells assessed as accumulation of integrated junction products after 48 hrs by Alu-PCR assay. The format is functional, organism-based. The following applies: Human immunodeficiency virus 1, SUP-T1, 48 h.
Data set [4] concerns Human immunodeficiency virus 1. Kind of data set: Antiviral activity against HIV1 3B infected in human MT-4 cells by two fold dilution method in presence of 10% FBS. The format is functional, organism-based. The following applies: Human immunodeficiency virus 1, 3B, MT4.
Data set [5] can be described thus: Cytotoxicity against human uninfected MT2 cells by three fold dilution method in presence of 10% FBS.
The subject of data set [6] is Human immunodeficiency virus 1. Kind of data set: Antiviral activity against HIV1 infected in SupT1 cells assessed as accumulation of late RT products after 12 hrs. The format is functional, organism-based. The following applies: Human immunodeficiency virus 1, SUP-T1, 12 h.
In data set [7] the test system is Human immunodeficiency virus 1. The data set can be described thus: Antiviral activity against HIV1 3B infected in SupT1 cells assessed as fold increase in viral 2-LTR circles accumulation after […] postinfection by TaqMan real-time PCR. The format is functional, SUP-T1. (In general: In qPCR the cycle at which signal appears reflects the starting amount.)
Data set [8] relates to Human immunodeficiency virus 1. Kind of data set: Antiviral activity against 0.001 MOI HIV1 BAL infected in human T lymphocyte cells by p24 antigen ELISA in presence of 10% FBS. The class given is functional, organism-based. The following applies: Human immunodeficiency virus 1, BAL. Background: In an ELISA, binding on a coated surface is turned into a signal by an enzyme label.

Data set [9] has as its system Human immunodeficiency virus 1. The data set can be described thus: Antiviral activity against 0.01 MOI HIV1 3B infected in human MT-2 cells by two fold dilution method in presence of 100% human serum. The format is functional, organism-based. The following applies: Human immunodeficiency virus 1, 3B, MT2.
Data set [10] is described as follows: Cytotoxicity against human MT4 cells infected with HIV1 3B by three fold dilution method in presence of 10% FBS. The format is cell-based. The following applies: MT4 cells infected with HIV-1 3B.
Data set [11] in a line: Cytotoxicity against human T lymphocyte cells uninfected by XTT method in presence of 10% FBS.
For data set [12], the system named is Human immunodeficiency virus 1. Kind of data set: Antiviral activity against 0.001 MOI HIV1 BAL infected in human T lymphocyte cells by p24 antigen ELISA in presence of 10% FBS, HSA and alpha1-AGP. The format is functional, organism-based. The following applies: Human immunodeficiency virus 1, BAL.
In data set [13] the test system is Human immunodeficiency virus 1. Kind of data set: Antiviral activity against 0.04 MOI HIV1 3B infected in human MT-2 cells by […] dilution method in presence of 100% human serum. The following applies: Human immunodeficiency virus 1, 3B, MT2.
In data set [14] the test system is Human immunodeficiency virus 1. The data set can be described thus: Antiviral activity against HIV1 3B infected in human MT-2 cells by two fold dilution method in presence of 10% FBS. The following applies: Human immunodeficiency virus 1, 3B, MT2. The class given is functional, organism-based.
Data set [15] has as its system Human immunodeficiency virus 1. Kind of data set: Antiviral activity against HIV1 3B infected in human MT-2 cells by two fold dilution method in presence of 10% FBS, HSA and alpha1-AGP. The following applies: Human immunodeficiency virus 1, 3B, MT2. The class given is functional, organism-based.

The CC50 is the concentration that lowers cell viability or growth by half. As usually defined, the EC50 is the concentration needed to bring the measured effect to its halfway point. In the case of `COc1cc2c(cc1Cc1cccc(Cl)c1F)c(=O)c(C(=O)O)cn2[C@@H](CO)C(C)C`, the 50% cytotoxic concentration (CC50) in data set [1] amounted to 5300 nM; in [5] it was 8000 nM; in [10], 4000 nM; in data set [11] it was 40000 nM. Further, the EC50 in [2] is 121 nM; in [3] it was 0.3 nM; in data set [4], 0.17 nM; in [6], > 1000 nM; in [8] it was 0.2 nM; in data set [9] it was 83 nM. Also, the concentration for a half-maximal effect (EC50) in data set [12] is 16 nM; in [13], 207 nM; in data set [14], 0.6 nM; in [15], 24 nM. Besides, in data set [7], the “fold change (FC)” value was 2.3.
